Where a SMILES comes first, the peptide text is derived from it. Bridges are numbered along the chain shown (N, C = ends). [ ]: non-standard residue; d: D form. Pro(trans-4-F) = O=C(O)[C@@H]1C[C@@H](F)CN1; Pro(cis-4-F) = O=C(O)[C@@H]1C[C@H](F)CN1; Hyp = O=C(O)[C@@H]1C[C@@H](O)CN1; Pen = CC(C)(S)[C@H](N)C(=O)O; Tle = CC(C)(C)[C@H](N)C(=O)O; dDab = NCC[C@@H](N)C(=O)O; Dab = NCC[C@H](N)C(=O)O; Abu = CC[C@H](N)C(=O)O
Assays:
Type in all cases: cell-based
[1] = tested on: Escherichia coli ATCC 25922; conditions: ATCC 25922
Procedure: (§1) Lyophilized peptides were weighed on a Microbalance (Mettler MT5) and dissolved in sterile water to a final concentration of 1 mg/mL. Stock solutions were kept at +4° C., light protected.
(§2) The selective antimicrobial activities of the peptides were determined in 96-well plates (Greiner, polystyrene) by the standard CLSI broth microdilution method (Clinical and Laboratory Standards Institute. Methods for Dilution Antimicrobial Susceptibility Tests for Bacteria That Grow Aerobically; Approved Standard-Ninth Edition. CLSI document M07-A9 (ISBN 1-56238-783-9 [Print]; ISBN 1-56238-784-7 [Electronic]). Clinical and Laboratory Standards Institute, 950 West Valley Road, Suite 2500, Wayne, Pennsylvania 19087, USA, 2012) with slight modifications.
(§3) Colonies of the microorganisms were diluted in saline (0.85%, NaCl) and adjusted using a McFarland reader (bioMérieux SA, Marcy-l'Etoile, France) to 0.5 McFarland standard. Subsequently, the bacterial suspension was diluted in Mueller-Hinton II (MHII, cation adjusted) broth to give approximately 5×10^5 colony forming units (CFU/mL).
(§4) Inocula of the microorganisms were diluted into Mueller-Hinton II (MH, cation adjusted) broth and compared with a 0.5 McFarland standard to give appr. 10^6 colony forming units (CFU)/mL. Aliquots (90 μl) of inoculate were added to 10 μl of water+P-80 (Polysorbate 80, 0.002% final concentration) containing the peptide in serial two-fold dilutions at 10 fold final concentration. The following microorganisms were used to determine antibiotic selectivity of the peptides: Escherichia coli ATCC 25922, Escherichia coli MCR-1 Af 45 and Klebsiella pneumoniae SSI3010. Antimicrobial activities of the peptides were expressed as the minimal inhibitory concentration (MIC) in μg/mL at which no visible growth was observed after 18-20 hours of incubation at 35° C.

[2] = tested on: Escherichia coli MCR-1 Af 45; conditions: MCR-1 Af 45
Procedure: as §1, §2, §3, §4

[3] = tested on: Klebsiella pneumoniae SSI3010; conditions: SSI3010
Procedure: as §1, §2, §3, §4

[4] = tested on: human red blood cells (hRBC); conditions: red cells of human, 1 h, 200 μg/mL
Procedure: Lyophilized peptides were weighed on a Microbalance (Mettler MT5) and dissolved in sterile water to a final concentration of 1 mg/mL. Stock solutions were kept at +4° C., light protected. The peptides were tested for their hemolytic activity against human red blood cells (hRBC). Fresh hRBC were washed three times with phosphate buffered saline (PBS) and centrifuged for 5 min at 3000×g. Compounds (200 μg/mL) were incubated with 20% hRBC (v/v) for 1 h at 37° C. and shaking at 300 rpm. A value of 0% and 100% cell lyses, respectively, was determined by incubation of hRBC in the presence of PBS and 2.5% Triton X-100 in H2O, respectively. The samples were centrifuged, the supernatants were 8-fold diluted in PBS buffer and the optical densities (OD) were measured at 540 nm. The 100% lyses value (OD540H2O) gave an OD540 of approximately 0.5-1.0. Percent hemolysis was calculated as follows: (OD540peptide/OD540H2O)×100%.

SMILES | Escherichia coli ATCC 25922 MIC [1] | Escherichia coli MCR-1 Af45 MIC [2] | Klebsiella pneumoniae SSI3010 MIC [3] | Hemolysis at 0.2 g/L [4]
CC[C@H](C)[C@H](NC(=O)[C@@H]1C[C@@H](O)CN1C(=O)[C@@H](N)C(C)C)C(=O)N[C@@H]1C(=O)N[C@@H](Cc2ccc(O)cc2)C(=O)N[C@@H](CO)C(=O)N[C@@H](CC(N)=O)C(=O)N[C@@H](CCCNC(=N)N)C(=O)N[C@@H](CCN)C(=O)N[C@@H]([C@@H](C)O)C(=O)N[C@H](CCN)C(=O)N[C@@H](CCCCN)C(=O)N[C@@H](CCN)C(=O)N[C@@H](CCN)C(=O)N[C@H](C(=O)N[C@@H](Cc2ccc(O)cc2)C(=O)O)CSSC1(C)C [Example 1, Val-Hyp-Ile-Pen-Tyr-Ser-Asn-Arg-Dab-Thr-^DDab-Lys-Dab-Dab-Cys-Tyr] (H-V[Hyp]I[Pen]YSNR[Dab]T[dDab]K[Dab][Dab]CY-OH; disulfide 4-15) | 0.125 µg/mL | 0.03125 µg/mL | 0.25 µg/mL | <1%
CC[C@H](N)C(=O)N1C[C@H](O)C[C@H]1C(=O)N[C@H](C(=O)N[C@@H]1C(=O)N[C@@H](Cc2ccc(O)cc2)C(=O)N[C@@H](CO)C(=O)N[C@@H](CC(N)=O)C(=O)N[C@@H](CCCNC(=N)N)C(=O)N[C@@H](CCN)C(=O)N[C@@H]([C@@H](C)O)C(=O)N[C@H](CCN)C(=O)N[C@@H](CCCCN)C(=O)N[C@@H](CCN)C(=O)N[C@@H](CCN)C(=O)N[C@H](C(=O)N[C@@H](Cc2ccc(O)cc2)C(=O)O)CSSC1(C)C)[C@@H](C)CC [Example 2, Abu-Hyp-Ile-Pen-Tyr-Ser-Asn-Arg-Dab-Thr-^DDab-Lys-Dab-Dab-Cys-Tyr] (H-[Abu][Hyp]I[Pen]YSNR[Dab]T[dDab]K[Dab][Dab]CY-OH; disulfide 4-15) | 0.25 µg/mL | 0.125 µg/mL | 0.25 µg/mL | <1%
CC[C@H](C)[C@H](NC(=O)[C@@H]1C[C@@H](O)CN1C(=O)[C@@H](N)C(C)(C)C)C(=O)N[C@@H]1C(=O)N[C@@H](Cc2ccc(O)cc2)C(=O)N[C@@H](CO)C(=O)N[C@@H](CC(N)=O)C(=O)N[C@@H](CCCNC(=N)N)C(=O)N[C@@H](CCN)C(=O)N[C@@H]([C@@H](C)O)C(=O)N[C@H](CCN)C(=O)N[C@@H](CCCCN)C(=O)N[C@@H](CCN)C(=O)N[C@@H](CCN)C(=O)N[C@H](C(=O)N[C@@H](Cc2ccc(O)cc2)C(=O)O)CSSC1(C)C [Example 3, tBuGly-Hyp-Ile-Pen-Tyr-Ser-Asn-Arg-Dab-Thr-^DDab-Lys-Dab-Dab-Cys-Tyr] (H-[Tle][Hyp]I[Pen]YSNR[Dab]T[dDab]K[Dab][Dab]CY-OH; disulfide 4-15) | 0.125 µg/mL | 0.125 µg/mL | 0.25 µg/mL | <1%
CC[C@H](C)[C@H](NC(=O)[C@@H]1CCCN1C(=O)[C@@H](N)C(C)C)C(=O)N[C@@H]1C(=O)N[C@@H](Cc2ccc(O)cc2)C(=O)N[C@@H](CO)C(=O)N[C@@H](CC(N)=O)C(=O)N[C@@H](CCCNC(=N)N)C(=O)N[C@@H](CCN)C(=O)N[C@@H]([C@@H](C)O)C(=O)N[C@H](CCN)C(=O)N[C@@H](CCCCN)C(=O)N[C@@H](CCN)C(=O)N[C@@H](CCN)C(=O)N[C@H](C(=O)N[C@@H](Cc2ccc(O)cc2)C(=O)O)CSSC1(C)C [Example 4, Val-Pro-Ile-Pen-Tyr-Ser-Asn-Arg-Dab-Thr-^DDab-Lys-Dab-Dab-Cys-Tyr] (H-VPI[Pen]YSNR[Dab]T[dDab]K[Dab][Dab]CY-OH; disulfide 4-15) | 0.0625 µg/mL | 0.0625 µg/mL | 0.125 µg/mL | <1%
CC[C@H](C)[C@H](NC(=O)[C@@H]1CCCN1C(=O)[C@@H](N)C(C)C)C(=O)N[C@@H]1C(=O)N[C@@H](Cc2ccc(O)cc2)C(=O)N[C@@H]([C@@H](C)O)C(=O)N[C@@H](CC(N)=O)C(=O)N[C@@H](CCCNC(=N)N)C(=O)N[C@@H](CCN)C(=O)N[C@@H]([C@@H](C)O)C(=O)N[C@H](CCN)C(=O)N[C@@H](CCCCN)C(=O)N[C@@H](CCN)C(=O)N[C@@H](CCN)C(=O)N[C@H](C(=O)N[C@@H](Cc2ccc(O)cc2)C(=O)O)CSSC1(C)C [Example 5, Val-Pro-Ile-Pen-Tyr-Thr-Asn-Arg-Dab-Thr-^DDab-Lys-Dab-Dab-Cys-Tyr] (H-VPI[Pen]YTNR[Dab]T[dDab]K[Dab][Dab]CY-OH; disulfide 4-15) | 0.125 µg/mL | 0.0625 µg/mL | 0.25 µg/mL | <1%
CC[C@H](C)[C@H](NC(=O)[C@@H]1C[C@@H](OC)CN1C(=O)[C@@H](N)C(C)C)C(=O)N[C@@H]1C(=O)N[C@@H](Cc2ccc(O)cc2)C(=O)N[C@@H]([C@@H](C)O)C(=O)N[C@@H](CC(N)=O)C(=O)N[C@@H](CCCNC(=N)N)C(=O)N[C@@H](CCN)C(=O)N[C@@H]([C@@H](C)O)C(=O)N[C@H](CCN)C(=O)N[C@@H](CCCCN)C(=O)N[C@@H](CCN)C(=O)N[C@@H](CCN)C(=O)N[C@H](C(=O)N[C@@H](Cc2ccc(O)cc2)C(=O)O)CSSC1(C)C [Example 6, Val-Pro((4R)OMe)-Ile-Pen-Tyr-Thr-Asn-Arg-Dab-Thr-^DDab-Lys-Dab-Dab-Cys-Tyr] (H-V[Hyp](Me)I[Pen]YTNR[Dab]T[dDab]K[Dab][Dab]CY-OH; disulfide 4-15) | 0.125 µg/mL | 0.125 µg/mL | 0.25 µg/mL | <1%
CC[C@H](C)[C@H](NC(=O)[C@@H]1C[C@H](F)CN1C(=O)[C@@H](N)C(C)C)C(=O)N[C@@H]1C(=O)N[C@@H](Cc2ccc(O)cc2)C(=O)N[C@@H]([C@@H](C)O)C(=O)N[C@@H](CC(N)=O)C(=O)N[C@@H](CCCNC(=N)N)C(=O)N[C@@H](CCN)C(=O)N[C@@H]([C@@H](C)O)C(=O)N[C@H](CCN)C(=O)N[C@@H](CCCCN)C(=O)N[C@@H](CCN)C(=O)N[C@@H](CCN)C(=O)N[C@H](C(=O)N[C@@H](Cc2ccc(O)cc2)C(=O)O)CSSC1(C)C [Example 7, Val-Pro((4S)F)-Ile-Pen-Tyr-Thr-Asn-Arg-Dab-Thr-^DDab-Lys-Dab-Dab-Cys-Tyr] (H-V[Pro(cis-4-F)]I[Pen]YTNR[Dab]T[dDab]K[Dab][Dab]CY-OH; disulfide 4-15) | 0.125 µg/mL | 0.125 µg/mL | 0.25 µg/mL | <1%
CC[C@H](C)[C@H](NC(=O)[C@@H]1C[C@@H](F)CN1C(=O)[C@@H](N)C(C)C)C(=O)N[C@@H]1C(=O)N[C@@H](Cc2ccc(O)cc2)C(=O)N[C@@H]([C@@H](C)O)C(=O)N[C@@H](CC(N)=O)C(=O)N[C@@H](CCCNC(=N)N)C(=O)N[C@@H](CCN)C(=O)N[C@@H]([C@@H](C)O)C(=O)N[C@H](CCN)C(=O)N[C@@H](CCCCN)C(=O)N[C@@H](CCN)C(=O)N[C@@H](CCN)C(=O)N[C@H](C(=O)N[C@@H](Cc2ccc(O)cc2)C(=O)O)CSSC1(C)C [Example 8, Val-Pro((4R)F)-Ile-Pen-Tyr-Thr-Asn-Arg-Dab-Thr-^DDab-Lys-Dab-Dab-Cys-Tyr] (H-V[Pro(trans-4-F)]I[Pen]YTNR[Dab]T[dDab]K[Dab][Dab]CY-OH; disulfide 4-15) | 0.125 µg/mL | 0.0625 µg/mL | 0.25 µg/mL | <1%

From patent US20240336654A1, “ANTIMICROBIAL PEPTIDOMIMETICS” (SPEXIS AG, priority 2021, published 2024)
